Measurements: ChEMBL document CHEMBL5653610, “The novel phosphodiesterase 10A inhibitor THPP-1 has antipsychotic-like effects in rat and improves cognition in rat and rhesus monkey” (Neuropharmacology, 2013)
Active and inactive are the calls of the source. No cut-off for these calls is given here.

Tests used:
[1] = Total drug level in Wistar Hannover rat plasma at 3 mg/kg, po after 2 hrs by UPLC-MS analysis; assay type: ADME, organism-based
[2] = Bioavailability in orally dosed rhesus monkey after 4 hrs by UPLC-MS analysis; assay type: ADME, organism-based, Macaca mulatta; conditions: in vivo, route po
[3] = test system: Rattus norvegicus; assay: Antipsychotic activity in Wistar Hannover rat assessed as reduction in MK-801-induced psychomotor activity at 3 mg/kg, po for 14 days followed by drug dosing at 3 mg/kg, po 120 mins before MK-801 challenge; assay type: functional, organism-based; conditions: time 20280.0 min
[4] = test system: Rattus norvegicus; assay: In-vivo increase of CREB phosphorylation in membrane fraction of Wistar Hannover rat striatal tissues at 10 mg/kg, po after 2 hrs by Western blot analysis relative to control; assay type: functional, Striatum
[5] = Bioavailability in orally dosed dog after 2 hrs by UPLC-MS analysis; assay type: ADME, organism-based, Canis lupus familiaris; conditions: in vivo, route po
[6] = Unbound drug level in Wistar Hannover rat plasma at 0.1 mg/kg, po after 2 hrs by UPLC-MS analysis; assay type: ADME, organism-based; conditions: in vivo
[7] = test system: Rhesus monkey; assay: Antipsychotic activity in rhesus monkey assessed as blocking of ketamine impaired performance on difficult trials at 3 mg/kg, po dosed for 4 days prior to testing and on day 5 drug was administered orally 2 h prior to testing by object retrieval detour task; assay type: functional, organism-based; conditions: Macaca mulatta, time 5.0 day
[8] = Total drug level in plasma of Wistar Hannover rat engaged in object retrieval detour task at 3 mg/kg, po dosed for 4 days prior to testing and on day 5 drug was administered orally 2 h prior to testing and measured after 4 hrs by UPLC-MS analysis; assay type: ADME, organism-based; conditions: time 5 day
[9] = Unbound drug level in Wistar Hannover rat plasma at 1 mg/kg, po after 2 hrs by UPLC-MS analysis; assay type: ADME, organism-based; conditions: in vivo
[10] = Clearance in orally dosed rhesus monkey after 4 hrs by UPLC-MS analysis; assay type: ADME, organism-based, Macaca mulatta; conditions: in vivo, route po
[11] = Half life in orally dosed rat after 2 hrs by UPLC-MS analysis; assay type: ADME, organism-based; conditions: in vivo, route po
[12] = test system: Rattus norvegicus; assay: Antipsychotic activity in Wistar Hannover rat assessed as increase in recognition at 0.3 mg/kg, po dosed 90 mins before identical objects by novel object recognition test; assay type: functional, organism-based
[13] = Unbound drug level in Wistar Hannover rat plasma at 3 mg/kg, po after 2 hrs by UPLC-MS analysis; assay type: ADME, organism-based; conditions: in vivo
[14] = Half life in orally dosed dog after 2 hrs by UPLC-MS analysis; assay type: ADME, organism-based, Canis lupus familiaris; conditions: in vivo, route po
[15] = Drug level in Wistar Hannover rat CSF at 0.3 mg/kg, po after 2 hrs by UPLC-MS analysis; assay type: ADME, organism-based, Cerebrospinal fluid; conditions: read-out: Drug uptake
[16] = Drug level in Wistar Hannover rat CSF at 30 mg/kg, po after 2 hrs by UPLC-MS analysis; assay type: ADME, organism-based, Cerebrospinal fluid; conditions: read-out: Drug uptake
[17] = Clearance in orally dosed dog after 2 hrs by UPLC-MS analysis; assay type: ADME, organism-based, Canis lupus familiaris; conditions: in vivo, route po
[18] = Protein binding in orally dosed rhesus monkey plasma after 4 hrs by UPLC-MS analysis; assay type: ADME, organism-based, Macaca mulatta; conditions: route po, read-out: PPB (converted)
[19] = Total drug level in plasma of […] engaged in object retrieval detour task at 10 mg/kg, po dosed for 4 days prior to testing and on day 5 drug was administered orally 2 h prior to testing and measured after 4 hrs by UPLC-MS analysis; assay type: ADME, organism-based; conditions: time 5 day
[20] = test system: Rattus norvegicus; assay: Effect on total levels of GluR1 protein in membrane fraction of Wistar Hannover rat striatal tissues at 3 to 30 mg/kg, po by Western blot analysis; assay type: functional, organism-based; conditions: Striatum, dose 3-30 mg/kg
[21] = Protein binding in orally dosed dog plasma after 2 hrs by UPLC-MS analysis; assay type: ADME, organism-based, Canis lupus familiaris; conditions: route po, read-out: PPB (converted)
[22] = test system: Rattus norvegicus; assay: In-vivo increase of ERK in membrane fraction of Wistar Hannover rat striatal tissues at 30 mg/kg, po after 2 hrs by Western blot analysis relative to control; assay type: functional, organism-based; conditions: Striatum
[23] = Unbound drug level in Wistar Hannover rat plasma at 0.3 mg/kg, po after 2 hrs by UPLC-MS analysis; assay type: ADME, organism-based; conditions: in vivo
[24] = Unbound drug level in Wistar Hannover rat plasma at 30 mg/kg, po after 2 hrs by UPLC-MS analysis; assay type: ADME, organism-based; conditions: in vivo
[25] = Total drug level in Wistar Hannover rat plasma at 0.3 mg/kg, po after 2 hrs by UPLC-MS analysis; assay type: ADME, organism-based
[26] = Drug level in Wistar Hannover rat CSF at 10 mg/kg, po after 2 hrs by UPLC-MS analysis; assay type: ADME, organism-based, Cerebrospinal fluid; conditions: read-out: Drug uptake
[27] = Mean drug level in plasma of Wistar Hannover rat at 10 mg/kg, po dosed as single dose after 4 hrs by UPLC-MS analysis; assay type: ADME, organism-based
[28] = test system: Rattus norvegicus; assay: Antipsychotic activity in Wistar Hannover rat assessed as reduction in conditioned avoidance responding at 1 to 3 mg/kg, po dosed 120 mins before testing; assay type: functional, organism-based; conditions: dose 1-3 mg/kg

concentration at 2 h [1]: 745 nM
bioavailability [2]: 31%
bioavailability [5]: 79%
Cp(f) [6]: 0.6 nM
concentration at 120 h [8]: 592 nM
Cp(f) [9]: 4.9 nM
CL/F [10]: 7.7 mL/min/kg
half-life [11]: 1.4 h
Cp(f) [13]: 13.4 nM
half-life [14]: 7.2 h
concentration at 2 h [15]: 3 nM
concentration at 2 h [16]: 20.1 nM
CL/F [17]: 3.8 mL/min/kg
fraction unbound at 4 h [18]: 0.012
concentration at 120 h [19]: 1600 nM
fraction unbound at 2 h [21]: 0.03
Cp(f) [23]: 2.1 nM
Cp(f) [24]: 32.5 nM
concentration at 2 h [25]: 117 nM
concentration at 2 h [26]: 16.1 nM
concentration at 4 h [27]: 1530 nM
Compound: COCCOc1nc(-c2ccc(Cl)nc2)nc2c1CN(C(=O)c1ncn3ccccc13)CC2 [THPP-1]
Activity [3]: Active
fold change (FC) [4]: 2.3
Activity [7]: inactive
Activity [12]: Active
Activity [20]: inactive
Activity [22]: Dose-Dependent Effect
Activity [28]: Dose-Dependent Effect
